The cell lines below were run with CCn1c(-c2nonc2N)nc2c(C#CC(C)(C)O)ncc(OC[C@H]3CCCNC3)c21 + COc1cccc2cc(-c3nc([C@H]4CC[C@H](C(=O)O)CC4)n4ncnc(N)c34)[nH]c12 [OSI-027] (partner 0.5 µM) (assay: relative viability (nuclei count vs DMSO), 5 days (fraction); higher = more cells survive). Conditions: first compound 0.01 µM.
Method in brief: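 The day after seeding in 1536-well plates, lung cancer cell lines were treated by pin tool with a single drug, or with a fixed anchor-drug dose together with five library-drug doses (not always all listed) in √10 steps. After 5 days, a combined fix-and-stain solution (final 0.05% Triton X-100, 1% formaldehyde, 1 ug/ml Hoechst) was added. Nuclei counted on 4× images gave relative viability as treated counts over vehicle counts, reported as the median of duplicate plates.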
With LCLC-97TM1 the relative viability was 0.49. NCI-H2009 showed a relative viability of 0.577. Work on A-427 yielded a relative viability of 0.413. NCI-H661 was tested, and the relative viability was 0.659. NCI-H1734 was tested, and the relative viability was 0.574. With NCI-H460 the relative viability was 0.579. In the case of NCI-H2347, the relative viability is reported as 0.419. SK-LU-1 gave a relative viability of 0.387. 201T gave a relative viability of 0.675. For NCI-H1915, the relative viability was 0.625. HCC-827 gave a relative viability of 0.74. Work on LXF-289 yielded a relative viability of 0.778. With NCI-H23 the relative viability was 0.679. Cell Line NCI-H647 has a relative viability of 0.579. CAL-12T was tested, and the relative viability was 0.424. Cell Line NCI-H1651 has a relative viability of 0.719. With EPLC-272H the relative viability was 0.303. NCI-H2228 showed a relative viability of 0.628. In the case of NCI-H1792, the relative viability is reported as 0.739. With NCI-H1355 the relative viability was 0.451. Cell Line NCI-H3122 has a relative viability of 0.875. With NCI-H1437 the relative viability was 0.815. NCI-H1755 was tested, and the relative viability was 0.704. In the case of NCI-H2023, the relative viability is reported as 0.369. HCC-15 showed a relative viability of 0.576. For PC-14, the relative viability was 0.706. EKVX was tested, and the relative viability was 0.685. For LC-2-ad, the relative viability was 0.71. Work on NCI-H1563 yielded a relative viability of 0.73. In the case of NCI-H1944, the relative viability is reported as 0.367. NCI-H1975 gave a relative viability of 0.747.

Same assay, conditions: first compound 0.03162 µM
In the case of LCLC-97TM1, the relative viability is reported as 0.502. In the case of NCI-H2009, the relative viability is reported as 0.658. In the case of A-427, the relative viability is reported as 0.578. NCI-H661 was tested, and the relative viability was 0.781. With NCI-H1734 the relative viability was 0.632. For NCI-H460, the relative viability was 0.784. With NCI-H2347 the relative viability was 0.42. With SK-LU-1 the relative viability was 0.365. 201T showed a relative viability of 0.644. In the case of NCI-H1915, the relative viability is reported as 0.648. HCC-827 was tested, and the relative viability was 0.769. Cell Line LXF-289 has a relative viability of 0.779. NCI-H23 gave a relative viability of 0.612. With NCI-H647 the relative viability was 0.652. In the case of CAL-12T, the relative viability is reported as 0.541. NCI-H1651 was tested, and the relative viability was 0.676. EPLC-272H gave a relative viability of 0.261. NCI-H2228 showed a relative viability of 0.559. With NCI-H1355 the relative viability was 0.379. NCI-H3122 was tested, and the relative viability was 0.913. In the case of NCI-H1437, the relative viability is reported as 0.951. In the case of NCI-H1755, the relative viability is reported as 0.697. In the case of NCI-H2023, the relative viability is reported as 0.411. HCC-15 showed a relative viability of 0.602. PC-14 showed a relative viability of 0.968. EKVX gave a relative viability of 0.671. LC-2-ad showed a relative viability of 0.804. Work on NCI-H1563 yielded a relative viability of 0.783. Cell Line NCI-H1944 has a relative viability of 0.403. NCI-H1975 showed a relative viability of 0.824.

Same assay, conditions: first compound 0.1 µM
LCLC-97TM1 was tested, and the relative viability was 0.484. NCI-H2009 showed a relative viability of 0.578. In the case of A-427, the relative viability is reported as 0.367. Cell Line NCI-H661 has a relative viability of 0.644. With NCI-H1734 the relative viability was 0.538. For NCI-H460, the relative viability was 0.588. SK-LU-1 showed a relative viability of 0.318. 201T showed a relative viability of 0.625. NCI-H1915 was tested, and the relative viability was 0.573. With HCC-827 the relative viability was 0.698. In the case of LXF-289, the relative viability is reported as 0.808. For NCI-H23, the relative viability was 0.606. Cell Line NCI-H647 has a relative viability of 0.615. CAL-12T was tested, and the relative viability was 0.685. With NCI-H1651 the relative viability was 0.723. EPLC-272H showed a relative viability of 0.262. Cell Line NCI-H2228 has a relative viability of 0.446. With NCI-H1792 the relative viability was 0.696. For NCI-H1355, the relative viability was 0.378. In the case of NCI-H3122, the relative viability is reported as 0.791. For NCI-H1437, the relative viability was 0.885. Work on NCI-H1755 yielded a relative viability of 0.704. With NCI-H2023 the relative viability was 0.307. HCC-15 showed a relative viability of 0.626. PC-14 showed a relative viability of 0.797. With EKVX the relative viability was 0.678. LC-2-ad showed a relative viability of 0.871. NCI-H1563 showed a relative viability of 0.686. Work on NCI-H1944 yielded a relative viability of 0.434. NCI-H1975 was tested, and the relative viability was 0.616.

Same assay, conditions: first compound 0.3162 µM
LCLC-97TM1 gave a relative viability of 0.515. Work on NCI-H2009 yielded a relative viability of 0.569. With A-427 the relative viability was 0.509. For NCI-H661, the relative viability was 0.553. In the case of NCI-H1734, the relative viability is reported as 0.478. For NCI-H460, the relative viability was 0.535. Cell Line NCI-H2347 has a relative viability of 0.466. In the case of SK-LU-1, the relative viability is reported as 0.29. Cell Line 201T has a relative viability of 0.719. In the case of NCI-H1915, the relative viability is reported as 0.629. For HCC-827, the relative viability was 0.639. LXF-289 gave a relative viability of 0.759. For NCI-H23, the relative viability was 0.638. In the case of NCI-H647, the relative viability is reported as 0.419. CAL-12T showed a relative viability of 0.453. For NCI-H1651, the relative viability was 0.563. EPLC-272H showed a relative viability of 0.314. NCI-H2228 was tested, and the relative viability was 0.421. For NCI-H1792, the relative viability was 0.715. Work on NCI-H1355 yielded a relative viability of 0.393. NCI-H3122 was tested, and the relative viability was 0.317. Cell Line NCI-H1437 has a relative viability of 0.758. NCI-H1755 showed a relative viability of 0.69. With NCI-H2023 the relative viability was 0.202. With HCC-15 the relative viability was 0.575. For PC-14, the relative viability was 0.499. With EKVX the relative viability was 0.686. Work on LC-2-ad yielded a relative viability of 0.681. In the case of NCI-H1563, the relative viability is reported as 0.688. Cell Line NCI-H1944 has a relative viability of 0.37. NCI-H1975 showed a relative viability of 0.57.

Same assay, conditions: first compound 1 µM
Cell Line LCLC-97TM1 has a relative viability of 0.439. Work on NCI-H2009 yielded a relative viability of 0.584. In the case of A-427, the relative viability is reported as 0.443. Work on NCI-H661 yielded a relative viability of 0.501. Cell Line NCI-H1734 has a relative viability of 0.382. In the case of NCI-H460, the relative viability is reported as 0.548. With NCI-H2347 the relative viability was 0.336. Work on SK-LU-1 yielded a relative viability of 0.343.
